The text below walks through data of patent US11318206B2, “Compounds and methods for trans-membrane delivery of molecules” (Aposense Ltd., priority 2014, dated 2022).

Series [1] concerns EGFP gene. Put plainly: EGFP gene silencing in primary culture of hepatocytes of transgenic mice. To be noted: EGFP dsRNA, two MNMs, complex with Histone H2A (2:1 Histone/RNA); 40 nM; 72 hours. It counts as cell-based, mouse. On the procedure:
Double-stranded RNA sequence, as specified in Example 7 was attached to two MNMs according to Formula (VIIa), wherein a=2, and k=1, designated Apo-Si—C4. The conjugate (40 nM) was then incubated with the histone 2A protein (Histone H2A, Molecular Weight 14 kDa; New England Biolabs, Inc.) for 30 minutes (at a 2:1 Histone/RNA ratio) for generation of RNA+MNM+protein complex. The complex was then incubated with cells of primary culture of hepatocytes of transgenic mice, expressing the EGFP gene. After 72 hours, fluorescence of the EGFP signal was quantified utilizing an ELISA reader, as described in Example 7. […] As evident from the results, this complex was capable of effectively crossing the cell membranes, and moreover, exerting a beneficial biological performance in gene silencing. By comparison to the performance of the Control complex, which was devoid of MNMs, the observed results can be attributed solely to the MNMs of the invention.

For series [2], the system named is 3T3-EGFP cells. Put plainly: Uptake of Conjugate into 3T3-EGFP cells with dipole potential modulators phloretin or 6-KC. Type of series: cell-based, mouse. An excerpt:
Phloretin is an inhibitor of the membrane dipole potential and the related IMEF, while 6-keto-cholestanol (6-KC) is a potent enhancer of the IMEF). Therefore, a potential relationship between the effects of the dipole potential modulators phloretin or 6-KC, and the uptake level of the above Conjugate of the Invention (comprising the Apo-Si—C4 MNM, linked to dsDNA, of the sequence: Sense:/5′-MNM/TT/iCy3/[…] (SEQ ID. No. 9); Anti-sense:/5′-MNM/[…] (SEQ ID. No. 10); wherein Cy3 is a red fluorophore); was examined.
One day before the experiment, 3T3-EGFP cells in the exponential growth phase were plated in 6-well plates, at a density of 5×10^5 cells/well, with DMEM complete medium, without antibiotics. Cells were incubated with phloretin 750 μM at 37° C., or 6-KC 100 μM at 37° C., for one hour. The 6-KC was then washed away, while the phloretin was kept in the medium. The Conjugate as described above was diluted in 500 μl/well of Opti-Mem, and added to the above cells, at a final concentration of 40 nM for two hours. Delivery of the Conjugate was evaluated at 2 hours post transfection. At that time point, cells were trypsinized, supplemented with Hank's Buffered Salt Solution (HBSS buffer; Biological Industries, Israel) and centrifuged for 5 min at 1200 rpm. Cells were then re-suspended with Hank's Buffered Salt Solution, and subjected to analysis using FACSAria III Cell Sorter (BD Biosciences, San Jose, Calif., USA), utilizing the Cell Diva software. For each sample, a total of 10^4 events were collected.

For series [3], the system named is C26 cells. Put plainly: Delivery of 58-mer dsDNA Conjugate into C26 cells, ELISA reader (Example 8). Type of series: cell-based, murine. To be noted: Cy3 58-mer dsDNA, two MNMs. The method, then:
(§1) 3T3 cells and C26 cells were grown and prepared as described in Example 5 above. Cells were incubated for 1, 2, and 24 hours with a Conjugate comprising a 58-mer double-stranded (ds)DNA, linked to Cy3 fluorophore, and lined to two Apo-Si—C4 moieties. Two concentrations of the Conjugate were tested: 40 nM and 100 nM. Analysis comprised fluorescent microscopy and signal quantification by ELISA reader, as described in Example 5 above. An identical 58-mer dsDNA, not linked to E moieties, served as Control.

For series [4], the system named is 3T3-EGFP cells. As to the kind of experiment: Structure/function analysis of polarity: uptake into 3T3-EGFP cells, FACS. It counts as cell-based, mouse. To be noted: Cy3 58-mer DNA conjugate, 40 nM. The method, then: For this purpose, two analogous Conjugates were constructed and evaluated: • (i). A Conjugate of dsDNA, linked to E and E′, each has the structure as set forth in Formula (VIIa); designated Apo-Si—C4: […]
Both these MNM moieties were linked to a 58-mer DNA oligonucleotide, labeled with the Cy3-fluorophore, and were subjected to FACS analysis.
One day before the experiment, 3T3-EGFP cells in the exponential growth phase were plated in 6-well plates, at a density of 0.2-0.5×10^5 cells/well, with DMEM complete medium, without antibiotics. Each of the Cy3-labeled oligonucleotides (with or without the MNMs) was diluted in 500 μl/well of Opti-Mem, and added to the cells, at a final concentration of 40 nM. Delivery of the Conjugates was evaluated at 2-24 hours of incubation. Following the incubation period, cells were trypsinized, supplemented with Hank's Buffered Salt Solution (HBSS buffer; Biological Industries, Israel) and centrifuged for 5 min at 1100 rpm. […] Detection and quantification of the Cy3-positive cell population were performed using measurements of the fluorescence intensity in the cells incubated with the Apo-Si-4C Conjugate, relative to that of the cells incubated with the Control A Conjugate.

Series [5] deals with 3T3 cells. Put plainly: Delivery of 58-mer dsDNA Conjugate into 3T3 cells, ELISA reader (Example 8). Type of series: cell-based, murine. To be noted: Cy3 58-mer dsDNA, two MNMs. The method, then:
as §1

The nature of series [6]: Stability under oligonucleotide de-protection conditions, HPLC/MS. To be noted: ammonium hydroxide at 65° C., samples at 15 minutes, 1 and 2 hours. Type of series: physicochemical. An excerpt:
Synthesis of the Conjugates of the Invention customarily involves protecting the nucleobases of the synthesized oligonucleotides by chemical groups. For example, adenine is often protected by a benzoyl protecting group, guanine by isobutyryl, and cytosine by acetyl. These protecting groups should be removed at the end of synthesis, in order to obtain a functional oligonucleotide. This removal is customarily performed in strong basic conditions. For example, the standard protocol of IDT (Iowa, USA) for removal of the protecting groups during synthesis of oligonucleotides comprises incubation with ammonium hydroxide at 65° C. degrees, for 2 hours. In order to evaluate whether the Compound of the Invention can sustain de-protection in these harsh conditions, a model system was constructed, based on the following Model Compound A, having the following structure:
Two mg of this compound were incubated in the above standard conditions used for deprotection. Samples were drawn after 15 minutes, 1 and 2 hours incubation, and evaluated by HPLC/MS, exploring and analyzing the formation of new peaks. […] Therefore, this analogue of the compound of the Invention manifested stability in these relatively harsh basic conditions.

“Also recorded” adds a separate entry of the source.

Consider `[2H]CCCCOc1ccc2c(c1)CCC1C2CCC2(C)C(OCCCOC(C(F)(F)F)(C(F)(F)F)C(F)(F)F)CCC12` (stereo not drawn) [Apo-Si—C4], for which, in series [1], the “Reduction of the EGFP signal vs control complex without MNMs” value turned out to be 76%. Besides, the “Uptake by cells after 6-keto-cholestanol (Cy3 fluorescence microscopy)” value in series [2] (40 nM, 2 hours, pre-incubation with 6-KC 100 μM for one hour) was “markedly higher uptake; also recorded: markedly increased uptake”. The “Cells labeled (FACS)” value in series [2] (Cy3 dsDNA, MNMs, 40 nM, 2 hours, no modulator) turned out to be 68%. Moreover, the “Cells manifesting binding of the Conjugate (FACS)” value in series [2] (Cy3 dsDNA, MNMs, 40 nM, 2 hours, phloretin 750 μM) came out at 1.5%. Further, the “Uptake by cells after phloretin (flow cytometry)” value in series [2] (pre-incubation with phloretin) was “marked reduction in the uptake”. The “Ratio of signal intensity of the Conjugate versus control dsDNA devoid of MNMs” value in series [3] (40 nM) is reported as 80 fold; in series [3] (100 nM) it was 72 fold; in series [5] (40 nM), 104 fold; in series [5] (100 nM), 101 fold. Also, the “Cy3 fluorescent signal in cells (FACS)” value in series [4] (24 hours of incubation) was “further augmented”; in series [4] (two hours of incubation), “strong Cy-3 fluorescent signal”.

For the molecule `CCCCCCN(C(=O)Oc1ccccc1)[C@H]1CCSSC1` [Compound A], the “Degradation under de-protection conditions” value in series [6] is recorded as “no signs of degradation”.
